Measured values reported in patent publication US6174713A, “Candida cytoplasmic tryptophanyl-tRNA synthetase proteins, nucleic acids and strains comprising same” (Cubist Pharmaceuticals, Inc., priority 1997, dated 2001).

Columns and labels:
[1] = biological target: C. albicans cytoplasmic tryptophanyl-tRNA synthetase (recombinant, thrombin-cleaved GST fusion from pC3 822) (Candida albicans, UniProt Q5A3P4); assay: Aminoacylation (charging) assay, Km determination with purified recombinant TrpRS; format: biochemical; conditions: read-out: Km for tryptophan; recombinant enzyme; crude yeast tRNA; 1 to 40 μM [3H]tryptophan; 25° C.
Method: (§1) The purified recombinant protein obtained after thrombin cleavage of the GST-fusion protein produced by JM109/pC^3 822 was used for further kinetic studies. Charging assays were based on the procedure of Shepard et al. (Proc. Natl. Acad. Sci. USA 89:9964-68 (1992)). Unless otherwise stated, a typical 50 μl reaction, carried out at 25° C., contained 1 mM ATP, 1 μM of [^3 H]Tryptophan (22.2 Ci/mmol), 90 μM crude tRNA from brewer's yeast (Boehringer Mannheim), 10 mM KF, 30 mM HEPES, 30 mM KCl pH 7.5, 5 mM MgCl2, and 10 mM DTT. Purified enzyme was diluted in 100 mM HEPES, pH 7.5, 20 mM DTT and 0.1 mg/ml BSA.
(§2) Reactions were started by the addition of enzyme to the reaction mixture preincubated at 25° C., with […] protein in the assay. At various time intervals, 10 μl of the reaction mix was quenched in a 96-well filter plate (Millipore, cat# MAFBNOB50) prefilled with 100 μl of cold 5% TCA. The liquid in the filter plate was drained by applying vacuum suction on the manifold. The plate was subsequently washed 2 times with 200 μl 5% TCA, 2 times with 100 μl double distilled H2 O with continuous vacuum suction, and once with 100 μl 95% EtOH. The plate was heat-dried under vacuum, 100 μl Microscint was added to each well, and the aminoacylated tRNA was quantitated by scintillation counting in a Topcount (Packard) scintillation counter. […]

[2] = tested on: Nc1ncnc2c1ncn2[C@@H]1O[C@H](COP(=O)(O)OP(=O)(O)OP(=O)(O)O)[C@@H](O)[C@H]1O; assay: as above; format: biochemical, Candida albicans; conditions: other: recombinant enzyme, ATP concentration range 0.19 to 6 mM, 25° C., pH 7.5
Method: as §1, §2

Chain of C. albicans cytoplasmic tryptophanyl-tRNA synthetase (recombinant, thrombin-cleaved GST fusion from pC3 822) (Q5A3P4 whole entry S271A, the tested form may be a part): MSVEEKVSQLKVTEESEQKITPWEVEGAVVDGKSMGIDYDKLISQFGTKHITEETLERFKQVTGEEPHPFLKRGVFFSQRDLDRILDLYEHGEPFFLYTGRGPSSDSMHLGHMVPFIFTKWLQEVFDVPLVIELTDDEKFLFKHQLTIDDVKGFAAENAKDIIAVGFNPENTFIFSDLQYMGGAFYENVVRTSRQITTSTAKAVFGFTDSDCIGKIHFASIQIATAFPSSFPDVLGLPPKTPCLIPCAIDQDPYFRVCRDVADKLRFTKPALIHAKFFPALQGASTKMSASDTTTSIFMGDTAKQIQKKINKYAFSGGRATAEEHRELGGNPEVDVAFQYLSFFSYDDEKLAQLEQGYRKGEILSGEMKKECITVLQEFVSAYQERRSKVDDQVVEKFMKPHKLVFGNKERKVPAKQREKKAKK

| Compound | Km [1] [µM] | Km [2] [µM] |
| --- | --- | --- |
| N[C@@H](Cc1c[nH]c2ccccc12)C(=O)O [tryptophan] | 3 to 4 |  |
| C. albicans cytoplasmic tryptophanyl-tRNA synthetase (recombinant, thrombin-cleaved GST fusion from pC3 822) (Candida albicans SC5314) |  | 1100 |
